Holding throughout (format): cell-based
A short description of series [1]: Cytotoxicity evaluation on Vero cell line (MTT). The following applies: Vero cells, read-out: Anti-VERO CC50. As for the experimental part:
(§1) The biological activity of the compounds of the present invention were evaluated. The activity against mycobacteria (Mtb) was assessed by minimum inhibitory concentration values (MIC, µM) determination. The selectivity index (SI) is defined as: SI = (CC50)/(MIC) [formula] wherein CC50 refers to the half maximal cytotoxic concentration of compounds towards particular eukaryotic cells, either for HCT116 cells and/or VERO cells; MIC refers to the minimum inhibitory concentration of the compounds towards mycobacteria.
Cytotoxicity evaluation of the tested molecules by MTT assay was performed on the Vero cell line. Briefly, cells (5.10^4 cells/mL) in 100 µL of complete medium [MEM supplemented with 10% fetal calf serum (FCS), 2 mM L-glutamine and antibiotics (100U/mL penicillin and 100 µg/mL streptomycin)] were seeded into each well of 96-well plates and incubated at 37 °C in a humidified 5% CO2 with 95% air atmosphere. After a 24 h incubation, 100 µL of medium with various product concentrations and appropriate controls were added and the plates were incubated for 72 h at 37 °C. Each plate-well was then microscope-examined for detecting possible precipitate formation before the medium was aspirated from the wells. 100 µL of MTT solution (0.5 mg/mL in complete MEM) were then added to each well. Cells were incubated for 1 h at 37 °C and the MTT solution was then removed, and DMSO (100 µL/well) was added to dissolve the resulting formazan crystals. Plates were shaken vigorously (300 rpm) for 5 min. The absorbance was measured at 570 nm with a microplate spectrophotometer (BIOTEK Eon). DMSO was used as blank and SDS as positive control. CC50 were calculated by non-linear regression analysis processed on dose-response curves, using TableCurve 2D V5 software.

The test system of another series is M. abscessus. Put plainly: Antibacterial activity MIC, M. abscessus. Conditions: Mycobacteroides abscessus.
Series [2] concerns Mycobacterium tuberculosis strain H37Rv. As to the kind of experiment: Mycobacterial growth inhibition assay (colorimetric MTT micro assay, MIC). In general terms: Formazan colour is commonly taken as a measure of viable cells.
The nature of series [3]: Cytotoxicity evaluation on HCT-116 cell line (SRB). The following applies: human, HCT-116 cells, 72 hours treatment, read-out: Anti-HCT116 CC50. The procedure: as §1
Human HCT-116 colon cancer cells were seeded in 96-well plates (2500 cells/well) 24 hours before being treated for 72 hours with the tested compounds. Cells were grown and treated in DMEM 10% FBS. For each compound, 11 concentrations, corresponding to twofold serial dilutions from the maximum concentration, were evaluated, with each concentration tested in duplicate. DMSO was set at 0.5% final concentration in each well, including in the untreated conditions. At the end of the treatment, cells were fixed 1 hour at 4°C by addition of cold 10 % trichloroacetic acid to a final 3.33 % concentration, then washed 4 times with water. The plates were dried and the cells stained for 30 minutes with 0.057 % (wt/vol) Sulforhodamine B (SRB) in 1% acetic acid, then washed 4 times with 1% acetic acid and dried. The dye was resuspended by a 1 h 30 incubation in 200 µL of 10 mM Tris-base and the absorbance at 490 nm measured with a plate reader (µquant, Bio-tek). For normalization, the background value was subtracted to each value, the duplicates averaged and the untreated condition set to 100% cell viability. CC50 were computed from at least three independent experiments using the GraphPad Prism software using a non-linear regression to a four-parameter logistic curve (log[inhibitor] vs response; variable slope).

[4] abbreviates: M. tuberculosis (Table 4), read-out: Antibacterial activity MIC M. tuberculosis.
Setting [5] is: M. tuberculosis H37Rv, 7H9 broth, 6 days incubation then MTT 24 h, read-out: Anti-Mtb MIC.

Values after ≈ are worked out from the molar mass of the structure shown. Read-outs that look alike come from different tables or passages of the source.

Turning to `CCCCCCCCCCCCC#CCO` [Comparative example A, reference compound], the CC50 at 72 h was determined as 187 µM in series [1] (monkey) and 120 µM in series [3]. In addition, the MIC stood at 20 µM (≈ 4.49 µg/mL) against M. abscessus, 5 µM (≈ 1.12 µg/mL) in series [2] (setting [4]) and 5 µM (≈ 1.12 µg/mL) in series [2] (setting [5]).

With `CCCCCCCCCCCC(O)C#CC(O)CC` (centres unmarked) [Compound 6, Heptadec-4-yne-3,6-diol], the CC50 at 72 h came to 43.2 µM in series [1] (African green monkey) and 40 µM in series [3] (HCT-116 colon cancer cells). Besides, the figures for the MIC (in the series with M. abscessus; in series [2] (setting [4]); in series [2] (setting [5])) were 10 µM (≈ 2.68 µg/mL), 2.5 µM (≈ 0.671 µg/mL) and 2.5 µM (≈ 0.671 µg/mL), respectively.

Regarding `CCCCCCCCCCCCC#CC(O)CC` (centres unmarked) [Compound 22, Heptadec-4-yn-3-ol], the values for the CC50 at 72 h in series [1] (African green monkey) and in series [3] (HCT-116 colon cancer cells) were greater than 50 µM and 12 µM, respectively. Moreover, the MIC in the series with M. abscessus was greater than 20 µM; in series [2] (setting [4]), 2.5 µM (≈ 0.631 µg/mL).

A word on the CC50: it is the concentration giving 50% cytotoxicity. In general, MIC refers to the smallest concentration in the dilution series that meets the test's criterion for growth inhibition.

The record behind these values is patent publication EP4613730A1, “LIPIDIC ALKYNYLCARBINOLS WITH ANTI-BACTERIAL AND ANTI-TUBERCULOSIS ACTIVITY” (priority 2024, dated 2025).
